According to patent US7083799B1, “No-synthase inhibitors” (L'Oreal, priority 1995, dated 2006):
One block for each compound: values may come before it.

Experiments:
[1] = observation of toxicity and weight change in mice given the inhibitor orally; format: in vivo, mouse (Balb/C); details: oral in drinking water 1 mg/ml (170±40 mg/kg per day), once per day for 11 days
Procedure: (§1) 5 (=group 2) of the 10 mice thus treated are made to ingest orally N^G-nitro-L-arginine methyl ester in drinking water from t=0 and once per day for 11 days (N^G-nitro-L-arginine methyl ester concentration of 1 mg/ml, that is to say 170±40 mg/kg per day).

[2] = system: mouse ear oedema induced by 0.01% 2-(5,6,7,8-tetrahydro-5,5,8,8-tetramethyl-2-naphthyl)-6-benzo[b]thiophenecarboxylic acid; experiment: mouse ear oedema test (ear thickness) induced by topical application of an irritant retinoid; format: in vivo, mouse (Balb/C); details: curative
Procedure: This increase in the thickness of the mouse ear appears to be due to an increase in the thickness of the epidermis and to the appearance of a dermal oedema. This response can therefore be easily measured with the aid of an apparatus, such as the oditest.
as §1
[…] The 5 mice which were not treated with […] constitute group 1.

[3] = system: mouse ear oedema induced by 0.01% 2-(5,6,7,8-tetrahydro-5,5,8,8-tetramethyl-2-naphthyl)-6-benzo[b]thiophenecarboxylic acid; experiment: as above; format: in vivo, mouse (Balb/C)
mouse ear = details: in vivo
Procedure: Next, there is topically applied to the ear of these 5 mice previously treated with N^G,N^G-dimethylarginine (group A) and to the ear of 5 untreated mice (group B), at time t=0, 20 μl of an acetone solution comprising 0.01% by weight of 2-(5,6,7,8-tetrahydro-5,5,8,8-tetramethyl-2-naphthyl)-6-benzo[b]thiophenecarboxylic acid. The oedematous response is quantified by measurement of the thickness of the ear.

[4] = 1% by weight, topical from 6 hours after the irritant, once per day for 5 days
[5] = 5%, topical from 6 hours after the irritant, once per day for 5 days, curative
[6] = gel 1% by weight, topical once per day for 4 days before the irritant, preventive, group A vs group B

SMILES: COC(=O)[C@@H](N)CCCNC(=N)N[N+](=O)[O-] [N^G-nitro-L-arginine methyl ester, methyl ester of N^G-nitro-L-arginine]
change in weight [1]: not modified | sign of toxicity [1]: no sign of toxicity | increase in the thickness of the mouse ear (maximum of group 1 without inhibitor = 100%) ([2]; oral in drinking water 1 mg/ml (170±40 mg/kg per day) from t=0, once per day, after 5 days of treatment): 70% | inhibition of the ear oedema ([2]; oral in drinking water 1 mg/ml (170±40 mg/kg per day) from t=0, after 5 days): 30%

SMILES: C[N+](C)(C)CC(=O)O [betaine, reference compound]
inhibition of the ear oedema [2, 4]: 9% | reduction of the area under the curve of the response induced by the irritant product (ear thickness vs days) [2, 4]: 24% | inhibition of the ear oedema [3, 5]: 16% | reduction of the area under the curve of the response induced by the irritant product (ear thickness vs days) [3, 5]: 13%

SMILES: CN=C(NC)NCCC[C@H](N)C(=O)O [SDMA, N^G,N^G-dimethyl-L-arginine, reference compound]
inhibition of the ear oedema [2, 4]: 7% | reduction of the area under the curve of the response induced by the irritant product (ear thickness vs days) [2, 4]: 27%

increase in the thickness of the ear by the inhibitor gel alone (mouse ear): No increase
SMILES: CN(C)C(N)=NCCC[C@H](N)C(=O)O [N^G,N^G-dimethylarginine]
reduction of the amplitude of the response induced by the irritant product [3, 6]: 24% | reduction of the area under the curve of the response induced by the irritant product (ear thickness vs days) [3, 6]: 50%

SMILES: CNC(=N)NCCC[C@H](N)C(=O)O [L-NMMA, N^G-monomethyl-L-arginine]
inhibition of the ear oedema [2, 4]: 28% | reduction of the area under the curve of the response induced by the irritant product (ear thickness vs days) [2, 4]: 51% | increase in the thickness of the mouse ear (maximum of group 1 without inhibitor = 100%) ([2]; gel 1% by weight, topical from 6 hours after the irritant, once per day for 5 days, after 5 days): 72%
